Consider 21 compounds from ChEMBL document CHEMBL1140503, “Discovery of 1,1-dioxo-1,2,6-thiadiazine-5-carboxamide derivatives as cannabinoid-like molecules with agonist and antagonist activity” (Bioorg Med Chem, 2007).

For test [1], the target named is Cannabinoid receptor 1 (Mus musculus) (UniProt P47746). As to the kind of experiment: (§1) Agonist activity at CB1 receptor in ICR mouse vas deferens assessed as inhibition of electrically-stimulated contraction. Type of test: functional, tissue-based.
Sequence of Cannabinoid receptor 1 (Mus musculus) (P47746 whole entry): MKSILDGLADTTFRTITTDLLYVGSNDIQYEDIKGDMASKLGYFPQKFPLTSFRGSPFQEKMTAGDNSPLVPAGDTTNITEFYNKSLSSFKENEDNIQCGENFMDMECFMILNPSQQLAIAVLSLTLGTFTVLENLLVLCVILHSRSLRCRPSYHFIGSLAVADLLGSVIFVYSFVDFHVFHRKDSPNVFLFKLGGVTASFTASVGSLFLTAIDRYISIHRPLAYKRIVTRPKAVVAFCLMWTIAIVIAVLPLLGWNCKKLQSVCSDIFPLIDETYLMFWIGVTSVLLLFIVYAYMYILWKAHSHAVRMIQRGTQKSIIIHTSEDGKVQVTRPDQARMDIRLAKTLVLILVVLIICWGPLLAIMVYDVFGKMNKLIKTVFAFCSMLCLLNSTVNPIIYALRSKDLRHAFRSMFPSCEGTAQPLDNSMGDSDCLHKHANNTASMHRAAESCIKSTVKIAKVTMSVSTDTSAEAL
In test [2] the target is T1, Cannabinoid receptor 1 (Mus musculus, UniProt P47746). The description is as §1. It is filed as functional, tissue-based.
T1 sequence (P47746 whole entry): as above
Test [3] is described as follows: Antagonism of WIN-55212-2 mediated antinociceptive activity in ICR mouse at 1 mg/kg ip dose. Type of test: functional, organism-based. On the set-up: dose 1 mg/kg. Particulars: filed as antagonist.
Test [4] concerns Mus musculus. The test can be described thus: Prevention of spontaneous activity reduction in ICR mouse at 1 mg/kg, ip. Type of test: functional, organism-based. On the set-up: dose 1 mg/kg.
Test [5] has as its system Mus musculus. The test can be described thus: Inhibition of spontaneous motility in ICR mouse at 1.5 mg/kg, ip. Type of test: functional, organism-based. Also on record: dose 1.5 mg/kg.
Test [6] concerns Mus musculus. As to the kind of experiment: Antinociceptive activity in ICR mouse at 1.5 mg/kg, ip by hot plate test. Also on record: dose 1.5 mg/kg. It is filed as functional, organism-based.
In test [7] the test system is Mus musculus. The test can be described thus: Induction of catalepsy in ICR mouse at 1.5 mg/kg, ip by ring test. It is filed as functional, organism-based. On the set-up: dose 1.5 mg/kg.
In test [8] the test system is Mus musculus. The test can be described thus: Induction of hypothermic effect in ICR mouse at 1.5 mg/kg, ip. It is filed as functional, organism-based. Also on record: dose 1.5 mg/kg.
In test [9] the test system is Mus musculus. As to the kind of experiment: Increase in locomotory activity in ICR mouse at 20 mg/kg, ip. It is filed as functional, organism-based. On the set-up: dose 20 mg/kg.
For test [10], the system named is Mus musculus. As to the kind of experiment: Effect on cannabinoid behavioral sign in ICR mouse at 0.2 mg/kg, icv. Also on record: dose 0.2 mg/kg. It is filed as functional, organism-based.
The target of test [11] is T1, Cannabinoid receptor 1. As to the kind of experiment: Antagonist activity at CB1 receptor in ICR mouse vas deferens assessed as reversal of WIN-55212-2-induced effect on electrically-stimulated contraction. Type of test: functional, tissue-based. Particulars: read-out: pA2 (converted).

Active and inactive are the calls of the source. No cut-off for these calls is given here.

For the compound `Cc1cc(C2=CC(C(=O)NN3CCCCC3)=NS(=O)(=O)N2Cc2ccccc2)ccc1Cl`, in [1], the Agonism entry was “inactive”.

Turning to `Cc1cc(C2=CC(C(=O)NC3C4(C)CCC(C4)C3(C)C)=NS(=O)(=O)N2Cc2ccccc2)ccc1Cl` (stereo not given), the Agonism result in test [1] is “inactive”.

`CCCCCCN1C(C)=CC(C(=O)NN2CCCCC2)=NS1(=O)=O`: on Cannabinoid receptor 1 [2], the EC50 was determined as 36.9 µM.

In the case of `CC12CCC(C1)C(C)(C)C2NC(=O)C1=NS(=O)(=O)N(Cc2ccc(Cl)cc2Cl)C(c2ccc(Cl)cc2)=C1` (stereo not given), the Agonism entry in [1] was “inactive”.

Turning to `CC1=CC(C(=O)NC2CCCCC2)=NS(=O)(=O)N1c1ccccc1`, in test [1], the Agonism result was “inactive”.

As for `O=C(NN1CCOCC1)C1=NS(=O)(=O)N(Cc2ccccc2)C(c2ccc(Br)cc2)=C1`, the Agonism result in test [1] is “inactive”.

For the compound `Cc1c(C(=O)NN2CCCCC2)nn(-c2ccc(Cl)cc2Cl)c1-c1ccc(Cl)cc1`, in [3], the Antagonism entry is “Antagonist”.

Consider `Cc1c(C(=O)c2cccc3ccccc23)c2cccc3c2n1[C@H](CN1CCOCC1)CO3`, for which the result with Mus musculus [4], in the test with Mus musculus [5], with Mus musculus [6], with Mus musculus [7] and in the test on Mus musculus [8] was Active.

For the compound `O=C(NN1CCCCC1)C1=NS(=O)(=O)N(C2CCCCC2)C(c2ccc(Br)cc2)=C1`, on Cannabinoid receptor 1 [2], the EC50 came out at 38.4 µM.

Turning to `CC1=CC(C(=O)NN2CCCCC2)=NS(=O)(=O)N1C1CCCCC1`, the Agonism entry in [1] was “inactive”.

For the compound `CC1=CC(C(=O)NN2CCCCC2)=NS(=O)(=O)N1c1ccc(Cl)cc1`, the Agonism result in test [1] was “inactive”.

As to `CC12CCC(C1)C(C)(C)C2NC(=O)C1=NS(=O)(=O)N(Cc2ccccc2)C(c2ccc(Cl)cc2)=C1` (stereo not given), in the test on Mus musculus [9], the result was Active. Also, the result in the test on Mus musculus [10] was inactive. Also, on Cannabinoid receptor 1 [2], the EC50 was determined as 11.9 µM.

For `O=C(NN1CCCCC1)C1=NS(=O)(=O)N(Cc2ccccc2)C(c2ccc(Cl)cc2)=C1`, the Antagonism result in test [3] was “Antagonist”. In addition, the EC50 at Cannabinoid receptor 1 [2] was determined as 13.5 µM. On Cannabinoid receptor 1 [11], the Kb is 0.12 µM.

For the compound `CC1=CC(C(=O)NN2CCCCC2)=NS(=O)(=O)N1Cc1ccccc1`, the Agonism result in test [1] was “inactive”.

Regarding `O=C(Nc1ccccc1)C1=NS(=O)(=O)N(Cc2ccccc2)C(c2ccc(Cl)cc2)=C1`, the EC50 on Cannabinoid receptor 1 [2] came to 5.73 µM.

As for `Cc1cc(C2=CC(C(=O)NC3CCCCC3)=NS(=O)(=O)N2Cc2ccc(Cl)cc2Cl)ccc1Cl`, the EC50 on Cannabinoid receptor 1 [2] turned out to be 36.9 µM.

For the compound `O=C(NN1CCCCC1)C1=NS(=O)(=O)N(Cc2ccc(Cl)cc2Cl)C(c2ccc(Br)cc2)=C1`, the Agonism result in test [1] is “inactive”.

Take `CCCCCCN1C(c2ccc(Cl)cc2)=CC(C(=O)NN2CCCCC2)=NS1(=O)=O`: the EC50 on Cannabinoid receptor 1 [2] worked out at 8.44 µM. At Cannabinoid receptor 1 [11], the Kb was 0.209 µM.

For `O=C(NN1CCCCC1)C1=NS(=O)(=O)N(Cc2ccc(Cl)cc2Cl)C(c2ccc(Cl)cc2)=C1`, the Agonism result in test [1] is “inactive”.

Turning to `CC1=CC(C(=O)NN2CCOCC2)=NS(=O)(=O)N1Cc1ccccc1`, in test [1], the Agonism result is “inactive”.

`O=C(NN1CCCCC1)C1=NS(=O)(=O)N(Cc2ccccc2)C(c2ccc(Br)cc2)=C1`: the Agonism result in test [1] was “inactive”.
